Columns and labels:
[1] = test system: MC38 colon adenocarcinoma; test: Compound #1 with 5FU against colon adenocarcinoma (Example 95); assay type: in vivo, C57/BL mice
Experimental: C57/BL mice 6-8 weeks old (n=7-9/gr) were injected with 3×10^5 MC38 colon adenocarcinoma cells s.c. on day 0. On day 7, tumor-bearing mice were randomized and injected with 5FU at 20 mg/kg either alone or in combination with levamisole at 20 mg/kg i.p. or with compound #1 at 25 and 50 mg/kg i.p. over a four week period. During this period, animals were treated for 5 consecutive days, untreated for 2 days, and treated again for 5 consecutive days per week for 4 weeks.

[2] = cited from earlier work
[3] = test system: spleen cells; test: Immunophenotyping on spleen cells, combination with 5 Fluorouracil; assay type: in vivo, C57/BLJ6 mice; details: 5 FU 80 mg/kg alone, N = 4
Experimental: (§1) After in vivo drugs analysis, the drugs were evaluated on whole blood for drug stability and toxicity. Furthermore, in vivo/ex vivo analysis was performed on normal and cyclophosphamide immunosuppressed animals plus 5Fu-treated animals. Cell immunophenotyping was performed on mouse-treatedblood and spleen. The following cell surface antigens were analyzed:
(§2) CD3 (all T cells), CD4 (T helper/inducer, binds class II-restricted T cells), CD8a (cytotoxic T cells, CTL adhesion), CD11a (T, B, NK, some stem cells, CTL adhesion anti LFA-1α), MAC-1 (monocyte/macrophage), NK (natural killer cells), Ly5 (B cells), CD45 (all leukocytes, protein tyrosine phosphates), and TCR (T cell receptor).
(§3) C57/BLJ6 mice (6-8 weeks old) were injected daily for 4 consecutive days, sacrificed at day 5 and immunophenotyping was performed on blood and spleen cells.
(§4) The cells were washed twice in PBS, resuspended in 1 ml of RPMI 2% FBS, and incubated for 45 min. on ice with monoclonal antibody. The cells were washed once, fixed with 1% paraformaldehyde, then analyzed using XL Coulter® counter.

[4] = test system: blood cells; test: Immunophenotyping on blood cells, combination with 5 Fluorouracil; assay type: in vivo, C57/BLJ6 mice; details: 5 FU 80 mg/kg alone, N = 4
Experimental: as §1, §2, §3, §4

[5] = test system: DA-3 mammary carcinoma; test: Tumor outgrowth of breast carcinoma, with cyclophosphamide (Example 92); assay type: in vivo, Balb/C mice; details: CY 100 mg/kg
Experimental: Balb/C Mice (n-5/Gr) were used along with DA-3 mammary carcinoma cell line. The mice were treated from -2 to 13 days. Animals were monitored for tumor takes/tumor size and body weights for three weeks from Day 0 until Day 21. D0 was the day of tumor cell inoculation and D21 was the day of experiment termination.
(§5) Parameters of effect were measured by inhibition of tumor outgrowth and growth rate [tumors measured along the longest axis (length) and the perpendicular shortest axis (width) and the tumor volumes (T.V.±S.E.) was calculated by the formula T.V.=length (cm)×(width cm)^2 /2.] assessment of body weight loss.
The statistical significance of difference between tumor takes and tumor sizes of control-untreated and drug-treated groups is estimated using the Chi-square and Student's t tests respectively with significance determined at n<0.05.
The mice were divided into the following 5 groups:
Gr.1--Normal Saline (0.2 ml/mouse i.p. starting at D2)
Gr.2--CY (100 mg/kg single bolus i.v. at D0)
Gr.3--Compound #1 (25 mg/kg i.p. starting at D2)
Gr.4--Compound #1 (50 mg/kg i.p. starting at D2)
Gr.5--CY (100 mg/kg i.v. at D0+compound #1 50 mg/kg i.p. starting at D2)

[6] = test system: DA-3 mammary carcinoma; test: Compound #1 with Cytoxan 28 mg/kg against DA-3 mammary carcinoma, tumor sizes (Example 94); assay type: in vivo, Balb/c mice; set-up: key: tumor volume = length × width²/2
Experimental: as §5
(§6) In another experiment, the CTX treatment was prolonged. Balb/c mice were injected s.c. with 5×10^5 DA-3 tumor cells at day 0. At day 4 when established tumors appeared, tumor-bearing animals were randomized (n=11/gr.) and injected with CTX (at 28 mg/kg) i.v. bolus injections at days 4, 11, and 18. […]

[7] = Body weight, compound #1 with Cytoxan 28 mg/kg (Example 94); assay type: in vivo, Balb/c mice; set-up: body weight: unit not given here
Experimental: as §6

[8] = test system: blood cells; test: Immunophenotyping on blood cells, combination with cyclophosphamide; assay type: in vivo, C57/BLJ6 mice; details: cyclophosphamide 100 mg/kg alone, N = 4
Experimental: as §1, §2, §3, §4

[9] = test system: immune system; details: prior art; cited from earlier work
[10] = test system: virus; details: cited from earlier work
[11] = single agent (CTX 28 mg/kg days 4, 11, 18, or BCH-1393 50 mg/kg days 3-28), day 4
[12] = single agent (CTX 28 mg/kg or BCH-1393 50 mg/kg), day 7
[13] = single agent (CTX 28 mg/kg or BCH-1393 50 mg/kg), day 9
[14] = single agent (CTX 28 mg/kg or BCH-1393 50 mg/kg), day 11
[15] = single agent (CTX 28 mg/kg or BCH-1393 50 mg/kg), day 14
[16] = single agent (CTX 28 mg/kg or BCH-1393 50 mg/kg), day 16
[17] = single agent (CTX 28 mg/kg or BCH-1393 50 mg/kg), day 18
[18] = single agent (CTX 28 mg/kg or BCH-1393 50 mg/kg), day 21
[19] = single agent (CTX 28 mg/kg or BCH-1393 50 mg/kg), day 23
[20] = single agent (CTX 28 mg/kg or BCH-1393 50 mg/kg), day 25
[21] = single agent (CTX 28 mg/kg or BCH-1393 50 mg/kg), day 28
[22] = single agent (CTX 28 mg/kg or BCH-1393 50 mg/kg), day 30

For `c1ccc([C@H]2CN3CCSC3=N2)cc1` [Levamisole, levamisole], which anti-tumor response ([1]; 5FU 20 mg/kg plus Levamisole 20 mg/kg) is on record?
The anti-tumor response was “moderate anti-tumor response”.

And the adverse effect ([2]; adjuvant levamisole therapy for malignant melanoma)?
The adverse effect was “induces serious thrombocytopenia”.

For `O=c1[nH]cc(F)c(=O)[nH]1` [5 FU, 5-fluorouracil, reference compound], which “CD4+ CD45- (mean)” value [3] is on record?
The value was 10.0.

What about the “NK+ (mean)” value [3] of the same compound?
Its value is 4.22.

And the “CD8+ CD45+ (mean)” value [4]?
Its value is 6.66.

And the “NK+ (mean)” value [4]?
The value was 3.24.

What about the anti-tumor response ([1]; 5FU 20 mg/kg alone) of the same compound?
The anti-tumor response was “moderate anti-tumor response”.

Which Tumor takes ([5]; day 4) does the source give for `O=P1(N(CCCl)CCCl)NCCCO1` (stereo not shown) [cyclophosphamide, reference compound] here?
Its Tumor takes is 5/5.

And the Tumor takes ([5]; day 6)?
Its Tumor takes is 5/5.

What about the Tumor takes ([5]; day 8) of the same compound?
The Tumor takes was 5/5.

And the Tumor takes ([5]; day 10)?
The Tumor takes was 5/5.

What about the tumor size [6, 11] of the same compound?
The tumor size was 4.2.

And the tumor size [6, 12]?
The tumor size was 10.5.

And the tumor size [6, 13]?
Its tumor size is 18.6.

And the tumor size [6, 14]?
Its tumor size is 30.7.

What about the tumor size [6, 15] of the same compound?
The tumor size was 50.6.

And the tumor size [6, 16]?
The tumor size was 54.5.

What about the tumor size [6, 17] of the same compound?
Its tumor size is 63.4.

And the tumor size [6, 18]?
Its tumor size is 88.5.

What about the tumor size [6, 19] of the same compound?
Its tumor size is 93.4.

What about the tumor size [6, 20] of the same compound?
Its tumor size is 106.3.

And the tumor size [6, 21]?
Its tumor size is 130.9.

And the tumor size [6, 22]?
The tumor size was 151.6.

And the body weight [7, 11]?
Its body weight is 19.2.

And the body weight [7, 12]?
Its body weight is 19.8.

And the body weight [7, 13]?
The body weight was 19.8.

What about the body weight [7, 14] of the same compound?
The body weight was 19.9.

And the body weight [7, 15]?
Its body weight is 19.2.

What about the body weight [7, 16] of the same compound?
The body weight was 19.7.

What about the body weight [7, 17] of the same compound?
Its body weight is 19.6.

What about the body weight [7, 18] of the same compound?
Its body weight is 19.8.

And the body weight [7, 19]?
Its body weight is 19.7.

And the body weight [7, 20]?
Its body weight is 20.1.

And the body weight [7, 21]?
Its body weight is 20.3.

What about the body weight [7, 22] of the same compound?
The body weight was 20.4.

And the “CP8+ CD45+ (mean)” value [8]?
Its value is 15.05.

What does the source list for `Nc1nc2c(sc(=O)n2[C@@H]2O[C@H](CO)[C@@H](O)[C@H]2O)c(=O)[nH]1` [7-thia-8-oxoguanosine]?
immunomodulating activity [9]: activate NK and B cells in the immune system, and to induce interferon; antiviral results ([10]; humans): few encouraging results; oral bioavailability [2]: lack of oral bioavailability

With `Nc1nc2c(ccn2[C@@H]2O[C@H](CO)[C@@H](O)[C@H]2O)c(=O)[nH]1` [7-deazaguanosine] as the compound, how does the “immunostimulatory and antiviral activity” value ([10]; after oral administration, preliminary) read?
Its value is “significant immunostimulatory and antiviral activity after oral administration”.
